# Values quoted from earlier work in US20070104896A1, “Optical film, polarizing plate and image display device” (FUJIFILM Corporation, priority 2005, published 2007).
# Settings: pKa of a conjugated acid of the organic base; values in an aqueous solution
row,SMILES,pKa
1,"Cc1ccc2ccc3ccc(C)nc3c2n1 [b-5, 2,9-Dimethyl-1,10-phenanthroline]",5.9
2,"Cc1ccnc2c1ccc1c(C)ccnc12 [b-6, 4,7-Dimethyl-1,10-phenanthroline]",5.9
3,"Cc1ccccn1 [b-7, 2-Methylpyridine]",6.1
4,"CCN1CCOCC1 [b-13, N-Ethylmorpholine]",7.7
5,"CN1CCOCC1 [b-14, N-Methylmorpholine]",7.8
6,"COCCNCCOC [b-15, Bis(2-methoxyethyl)amine]",8.9
7,"CN(C)CCO [b-17, N,N-Dimethyl-2-aminoethanol]",9.5
8,"CN(C)C [b-18, Trimethylamine]",9.9

# Results, then the compound that gave them:
row,pKa,SMILES
1,6.1,"Cc1ccncc1 [b-8, 4-Methylpyridine]"
2,6.5,"CN(C)c1cccnc1 [b-9, 3-(N,N-Dimethylamino)pyridine]"
3,7.0,"Cc1cccc(C)n1 [b-10, 2,6-Dimethylpyridine]"
4,7.6,"Cc1ncc[nH]1 [b-12, 2-Methyl imidazole]"
